# Results reported in article PMC12775434, “Ultra-large virtual screening unveils potent agonists of the neuromodulatory orphan receptor GPR139” (Nature Communications, 2025).
# “And” between values parts separate entries of the source, which are not always exact repeats. Equal entries are not always repeated.
# Molecular target: T1, GPR139 (Homo sapiens, UniProt Q6DWJ6)
# T1 sequence (Q6DWJ6 1-353): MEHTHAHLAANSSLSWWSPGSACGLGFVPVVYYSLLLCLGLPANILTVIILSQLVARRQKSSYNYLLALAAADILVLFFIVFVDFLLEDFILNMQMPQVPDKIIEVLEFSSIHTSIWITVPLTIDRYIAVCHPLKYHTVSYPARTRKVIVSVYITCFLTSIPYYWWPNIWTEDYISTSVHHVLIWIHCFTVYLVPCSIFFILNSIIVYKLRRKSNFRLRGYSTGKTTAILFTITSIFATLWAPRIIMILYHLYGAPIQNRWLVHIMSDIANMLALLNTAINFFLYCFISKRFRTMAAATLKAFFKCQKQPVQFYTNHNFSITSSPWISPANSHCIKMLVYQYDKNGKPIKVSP
# Assay: Inositol monophosphate (IP1) accumulation assay, GPR139-CHOk1
# Format: cell-based
# Conditions: for EC50 / Emax: Supplementary Table 2; for EC50: mean ± SEM, read-out: pEC50 IP1 (converted); for Emax: normalized to Lundbeck Cmp 1a, read-out: Emax (%) IP1; for IP1 response (% of Cmp 1a): individual replicates
# Method: Primary screening and pharmacological characterization of compounds were performed using a CHO-K1 cell line that stably expresses human GPR139 (GPR139-CHOk1). The GPR139-CHOk1 cell line was kindly provided by H. Lundbeck A/S, Denmark[24]. GPR139-CHOk1 cells were grown in Ham’s F-12 Kaighn’s Modification Medium (ThermoFisher #21127030) supplemented with 10% dialyzed fetal bovine serum (US origin, ThermoFisher #26400044), 100 units/mL Penicillin-Streptomycin (ThermoFisher #15140122), and 1 mg/mL Geneticin (ThermoFisher #11811031). […] M1R-CHOk1 cells were purchased from The Missouri S&T cDNA Resource Center (#CEM100TN00). M1R-CHOk1 cells were grown in Ham’s F12 Medium (ThermoFisher #21765029) supplemented with 10% fetal bovine serum (Brazilian origin, ThermoFisher #10270106), 100 units/mL Penicillin-Streptomycin, and 0.25 mg/mL Geneticin. HEK293A cells transiently transfected with GPR139 were used for additional pharmacological assessment of signaling pathways activated by GPR139. HEK239A cells were generously provided by Dr. Asuka Inoue, Tohoku University, Japan. HEK293A cells were grown in Dulbecco’s Modified Eagle Medium (ThermoFisher #31966047) supplemented with 10% dialyzed fetal bovine serum and 100 units/mL Penicillin-Streptomycin. Cell lines were maintained at 37 °C in humidified incubator equilibrated with 5% CO2.
# HTRF IP-One Gq kit (Cisbio #62IPAPEC) was used to detect the accumulation of inositol monophosphate (IP1) as described in the work by Shehata et al.[26]. GPR139-CHOk1 cells were dissociated and resuspended in HEPES buffer. 50,000 cells in 5 µL and 5 µL test compounds diluted from DMSO stocks (final DMSO concentration of maximally 0.3%) in HEPES buffer supplemented with 40 mM LiCl were mixed in each well of white 384-well OptiPlate (PerkinElmer #6007290). The cells were incubated for 1 h at 37 °C. Then, 10 µL detection reagent composed of 2.5% Eu3 + -anti-IP1 antibody and 2.5% IP1-d2 diluted in lysis buffer was added, and the cells were incubated for 1 h at room temperature before measurements. Measurements were performed on EnVision Multimode Plate Reader (PerkinElmer) using excitation light of 340 nm and emission light of 615 nm and 665 nm. The time resolved-fluorescence resonance energy transfer (TR-FRET) 665 nm/615 nm ratio, which is inversely proportional to the IP1 accumulation, was used to determine the IP1 response.
# Pharmacological data and statistical analyses were performed in GraphPad Prism v9–10 (Graphpad Software Inc., San Diego, CA), which are also specifically described in the figure and table legends. The functional assay responses were normalized to buffer (0%) and Lundbeck Cmp 1a or JNJ-63533054 (100%), for Ca^2+ and IP1 experiments in the GPR139-CHOk1 stable cell line or Ca^2+, G protein activation, and arrestin-3 recruitment experiments in the HEK293A cells transiently transfected with GPR139, respectively. Data are from at least three independent experiments, unless stated otherwise. Concentration-response curves were fitted applying non-linear regression using the log (agonist) versus response model with variable slope. ANOVA was applied for comparing results and determining statistical significance. Comparison of responses to the reference was performed using one-way ANOVA with Dunnett’s multiple comparisons test at significance threshold of p < 0.05. Comparison of responses across assays and ligands was performed using two-way ANOVA with Tukey’s multiple comparisons test at a significance threshold of p < 0.05.
EC50 [nM],Emax [%],Structure (SMILES),IP1 response (% of Cmp 1a) (log [compound] M -4.5),IP1 response (% of Cmp 1a) (log [compound] M -5.0),IP1 response (% of Cmp 1a) (log [compound] M -5.5),IP1 response (% of Cmp 1a) (log [compound] M -6.0),IP1 response (% of Cmp 1a) (log [compound] M -6.5),IP1 response (% of Cmp 1a) (log [compound] M -7.0),IP1 response (% of Cmp 1a) (log [compound] M -7.5),IP1 response (% of Cmp 1a) (log [compound] M -8.0)
501,102 ± 15,"Cc1nocc1-c1nc(CC(=O)NC(C)c2ccccc2)no1 (stereo not drawn) [Compound 1.5, CC(C1=CC=CC=C1)NC(CC2=NOC(C3=CON=C3C)=N2)=O]",120 % of Cmp 1a and 99 % of Cmp 1a and 50 % of Cmp 1a and 106 % of Cmp 1a,127 % of Cmp 1a and 79 % of Cmp 1a and 71 % of Cmp 1a and 109 % of Cmp 1a,103 % of Cmp 1a and 63 % of Cmp 1a and 65 % of Cmp 1a and 87 % of Cmp 1a,75 % of Cmp 1a and 61 % of Cmp 1a and 56 % of Cmp 1a and 68 % of Cmp 1a,59 % of Cmp 1a and 41 % of Cmp 1a and 29 % of Cmp 1a and 43 % of Cmp 1a,26 % of Cmp 1a and 25 % of Cmp 1a and 8 % of Cmp 1a and 18 % of Cmp 1a,22 % of Cmp 1a and 7 % of Cmp 1a and 0.699 % of Cmp 1a and 13 % of Cmp 1a,12 % of Cmp 1a and -12 % of Cmp 1a and -8.56 % of Cmp 1a and 4.3 % of Cmp 1a
1580,117 ± 14,"COc1cc(-c2nc(CC(=O)NC(C)c3ccccc3)no2)ccn1 (stereo not drawn) [Compound 1.7, COC1=NC=CC(C2=NC(CC(NC(C3=CC=CC=C3)C)=O)=NO2)=C1]",142 % of Cmp 1a and 109 % of Cmp 1a and 76 % of Cmp 1a and 127 % of Cmp 1a,138 % of Cmp 1a and 94 % of Cmp 1a and 74 % of Cmp 1a and 127 % of Cmp 1a,84 % of Cmp 1a and 64 % of Cmp 1a and 60 % of Cmp 1a and 90 % of Cmp 1a,57 % of Cmp 1a and 49 % of Cmp 1a and 36 % of Cmp 1a and 61 % of Cmp 1a,27 % of Cmp 1a and 9 % of Cmp 1a and 14 % of Cmp 1a and 24 % of Cmp 1a,16 % of Cmp 1a and 1.76 % of Cmp 1a and 0.565 % of Cmp 1a and 7 % of Cmp 1a,8 % of Cmp 1a and -3 % of Cmp 1a and 0.446 % of Cmp 1a and 6 % of Cmp 1a,7 % of Cmp 1a and -5.45 % of Cmp 1a and -4.55 % of Cmp 1a and 1 % of Cmp 1a
2510,118 ± 5,"Cc1cc(-c2nc(CC(=O)NC(C)c3ccccc3)no2)n(C)n1 (stereo not drawn) [Compound 1.16, CC(C1=CC=CC=C1)NC(CC2=NOC(C3=CC(C)=NN3C)=N2)=O]",95 % of Cmp 1a and 98 % of Cmp 1a and 122 % of Cmp 1a and 128 % of Cmp 1a,115 % of Cmp 1a and 88 % of Cmp 1a and 90 % of Cmp 1a and 87 % of Cmp 1a,53 % of Cmp 1a and 54 % of Cmp 1a and 79 % of Cmp 1a and 67 % of Cmp 1a,44 % of Cmp 1a and 38 % of Cmp 1a (2×) and 47 % of Cmp 1a,8 % of Cmp 1a and 17 % of Cmp 1a and 10 % of Cmp 1a and 15 % of Cmp 1a,-3.74 % of Cmp 1a and -1.83 % of Cmp 1a and 5.46 % of Cmp 1a and 8 % of Cmp 1a,-0.538 % of Cmp 1a and 1 % of Cmp 1a and -0.216 % of Cmp 1a and 6 % of Cmp 1a,-11 % of Cmp 1a and -1 % of Cmp 1a and 0.939 % of Cmp 1a and 0.124 % of Cmp 1a
